Data: paper PMC11643690, “Chelating Properties of N6O-Donors Toward Cu(II) Ions: Speciation in Aqueous Environments and Catalytic Activity of the Dinuclear Complexes” (Molecules, 2024)
Entries after “also recorded” stand apart in the source; their conditions may differ.

What was measured:
[1] = target: T1, β-amyloid 1–40 peptide (Homo sapiens, UniProt P05067); test: Thioflavin T (ThT) fluorescence aggregation assay; format: biochemical; settings: [ThT] = 10 μM; [β-amyloid 1–40] = 10 μM; 10 μM test substance; PBS pH 7.4, 37 °C
T1 construct: β-Amyloid (1–40) was purchased from GenScript; purchased GenScript (Leiden, the Netherlands)
Procedure: To evaluate the anti-aggregation ability of the complexes, the β-amyloid 1–40 peptide was selected due to its higher solubility and slower aggregation rate compared to the full-length Aβ 1–42. Aggregation experiments were conducted using the Thioflavin T (ThT) fluorescence assay, which is a standard method to monitor amyloid aggregation. ThT binds specifically to amyloid fibrils, causing an increase in fluorescence intensity. If a complex inhibits peptide aggregation, the observed fluorescence increase will be lower compared to the reference, indicating inhibition.
In this experiment, the amyloid peptide was first dissolved in 1,1,1,3,3,3-hexafluoro-2-propanol (HFIP) to facilitate its unfolding. A 0.2 mM solution of the peptide was then prepared in 10 mM PBS (containing 100 mM NaCl, pH 7.4). To this solution, equimolar amounts of ThT (prepared in the same buffer) and the complex (dissolved in methanol) were added.
Aggregation test: ThT method
Amyloid peptides Aβ1-40 were used for this analysis. […]
• For the measurement, fluorescence spectra were recorded with a plate reader, using a Tecan […]
The fluorescence of sample solutions was monitored at 37° C over a period of about 30 hours, acquiring values every 20 minutes. The fluorescence variation of ThT was compared in the presence/ absence of amyloid/ ligands/ complexes.

[2] = UV–Vis titration of ligands with Cu(ClO4)2, binding constant by non-linear regression; settings: difference of stability constants
Procedure: To determine the overall equilibrium constant β1,2 (Kbind), a solution of the ligand was titrated with aliquots of 0.2 equivalents of Cu(II). Monitoring the formation of the complex via UV–Vis spectroscopy, the absorbance around 260 nm, 300 nm, 450 nm, and 700 nm increased during the titration (Figure 3a) in all cases. The latter two bands are visible only at high concentrations (>0.1 mM). These changes are caused by the formation of the complex and the disappearance of the free ligand.
In Figure 3b, the linear increase in the absorbance change (ΔAbs) at 240 nm, upon an increase in Cu(II) amount, is evident, leading to a sharp plateau around 2 equivalents. […] The binding constants were determined by non-linear regression analysis of Equation (2), (2) ∆A/b=(K1∆A1Cu+ β1,2∆A2Cu^2)/1+K1Cu+ β1,2Cu^2 which traces the correlation “ΔAbs/b vs. Cu(II) concentration,” according to K. Connors. In this equation, ΔA is the differences in absorbance at a certain wavelength, b is the optical path (1 cm), K1 is the constant for the formation of the complex 1:1, and β1,2 is the global formation constant (Kbind) for the complex 1:2. ΔA1 and ΔA2 are the differences in absorbance due to the formation of the 1:1 complex and the 1:2 complex, respectively. […]
UV-vis spectra of ligands and complexes were recorded in a quartz cuvette, with 1 cm of optical path. […]

T1 sequence (P05067 672-711 limits assumed): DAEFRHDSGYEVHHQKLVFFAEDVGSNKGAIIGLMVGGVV

Compound: Cc1cc(CN(Cc2ccccn2)Cc2ccccn2)c(O)c(CN(Cc2ccccn2)Cc2ccccn2)c1 [HL-CH3, 2,6-bis[(bis(2-pyridylmethyl)amino)methyl]-4-methylphenol]
- inhibition of Aβ 1–40 aggregation (ThT fluorescence) [1]: moderate inhibition
- binding preference for copper ions over Mn2+, Fe2+, Zn2+ [2]: almost three orders of magnitude; also recorded: approximately three orders of magnitude higher
